One compound from PMC7486443, “Generation of Phenothiazine with Potent Anti-TLK1 Activity for Prostate Cancer Therapy” (iScience, 2020) can be followed below.

What all share (test): biochemical
Common to all, as to design: DiscoverX KINOMEscan scanMAX competition binding panel, single concentration, percent of control; remaining binding: dose or concentration left out as unconfirmed
Common to all, as to conditions: KINOMEscan binding, percent of control; read-out: Table S4_SCANMAX REPORT - related to Fig. 1 / Percent Control

One experiment addresses T1, ABL1-nonphosphorylated (Homo sapiens, UniProt P00519).
T1 construct: nonphosphorylated
The source says: (§1) Certain PTH are potent inhibitors of TLK1 ([Ronald et al., 2013]), and by inference TLK2, as these proteins must homo- and hetero-dimerize for full activation ([Mortuza et al., 2018]), in addition to being highly similar in sequence and structure, and thus similarly targetable. […] Two noteworthy observations are that PTHs are structurally different from many known ATP competitive inhibitors, and that J54 was carefully designed based on considerations reported previously for the THD—the Kinomescan has confirmed that J54 is specific to TLKs. We should point out that although PTH were the first reported inhibitors of TLKs ([Ronald et al., 2013]), other inhibitors particularly of TLK2 have since been reported ([Kim et al., 2016]), some based on structure docking ([Mortuza et al., 2018]), although neither their potency and effects in vivo nor their potential off-target effects have not been reported as they were selected from libraries of kinase inhibitors. Supplementary file mmc2.xlsx: Table S4. SCANMAX Table, Related to Figure 1 Kinomescan of J54 inhibitory activity on human kinases.

The target of another experiment is EGFR(G719S) (Homo sapiens, UniProt P00533, G719S).
Source text: as §1

For a further experiment, the target named is MYLK4 (Homo sapiens, UniProt Q86YV6).
Source text: as §1

The target of a further experiment is T2, PFTAIRE2 (Homo sapiens, UniProt Q96Q40).
T2 construct: gene CDK15
T2 sequence (Q96Q40 whole entry): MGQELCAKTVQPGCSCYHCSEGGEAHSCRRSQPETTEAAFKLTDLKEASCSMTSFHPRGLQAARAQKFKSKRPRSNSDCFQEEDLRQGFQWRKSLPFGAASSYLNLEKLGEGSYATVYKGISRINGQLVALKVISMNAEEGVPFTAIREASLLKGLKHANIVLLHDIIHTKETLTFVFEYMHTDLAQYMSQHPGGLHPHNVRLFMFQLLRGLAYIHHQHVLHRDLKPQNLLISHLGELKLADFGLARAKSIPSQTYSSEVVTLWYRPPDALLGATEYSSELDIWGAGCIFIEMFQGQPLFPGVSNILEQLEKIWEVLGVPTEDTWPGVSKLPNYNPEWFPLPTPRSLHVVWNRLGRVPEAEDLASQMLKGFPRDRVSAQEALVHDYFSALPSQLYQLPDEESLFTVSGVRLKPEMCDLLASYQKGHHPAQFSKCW
Source text: as §1

The next experiment concerns the target MARK1 (Homo sapiens, UniProt Q9P0L2).
Source text: as §1

Another experiment deals with TYRO3 (Homo sapiens, UniProt Q06418).
Source text: as §1

In experiment [1] the target is T3, JAK1(JH1domain-catalytic) (Homo sapiens, UniProt P23458).
T3 construct: JH1domain-catalytic
Source text: as §1

Another experiment concerns the target T4, ADCK3 (Homo sapiens, UniProt Q8NI60).
T4 construct: gene COQ8A
Source text: as §1

The target of another experiment is T5, ERK3 (Homo sapiens, UniProt Q16659).
T5 construct: gene MAPK6
Source text: as §1

Another experiment deals with T6, YANK1 (Homo sapiens, UniProt Q8WU08).
T6 construct: gene STK32A
T6 sequence (Q8WU08 whole entry): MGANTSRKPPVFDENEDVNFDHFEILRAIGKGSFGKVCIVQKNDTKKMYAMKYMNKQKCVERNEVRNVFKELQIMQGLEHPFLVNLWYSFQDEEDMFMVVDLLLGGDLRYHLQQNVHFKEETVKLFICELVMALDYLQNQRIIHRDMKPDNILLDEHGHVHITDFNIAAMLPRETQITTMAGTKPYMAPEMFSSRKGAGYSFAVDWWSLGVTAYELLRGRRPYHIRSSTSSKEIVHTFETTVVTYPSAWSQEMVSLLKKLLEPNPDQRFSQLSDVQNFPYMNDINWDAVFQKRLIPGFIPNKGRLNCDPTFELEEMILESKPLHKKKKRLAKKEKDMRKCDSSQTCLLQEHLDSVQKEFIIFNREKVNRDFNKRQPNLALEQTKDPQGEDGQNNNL
Source text: as §1

A further experiment addresses EPHB1 (Homo sapiens, UniProt P54762).
Source text: as §1

The target in a further experiment is CAMKK1 (Homo sapiens, UniProt Q8N5S9).
Chain of CAMKK1 (Q8N5S9 whole entry): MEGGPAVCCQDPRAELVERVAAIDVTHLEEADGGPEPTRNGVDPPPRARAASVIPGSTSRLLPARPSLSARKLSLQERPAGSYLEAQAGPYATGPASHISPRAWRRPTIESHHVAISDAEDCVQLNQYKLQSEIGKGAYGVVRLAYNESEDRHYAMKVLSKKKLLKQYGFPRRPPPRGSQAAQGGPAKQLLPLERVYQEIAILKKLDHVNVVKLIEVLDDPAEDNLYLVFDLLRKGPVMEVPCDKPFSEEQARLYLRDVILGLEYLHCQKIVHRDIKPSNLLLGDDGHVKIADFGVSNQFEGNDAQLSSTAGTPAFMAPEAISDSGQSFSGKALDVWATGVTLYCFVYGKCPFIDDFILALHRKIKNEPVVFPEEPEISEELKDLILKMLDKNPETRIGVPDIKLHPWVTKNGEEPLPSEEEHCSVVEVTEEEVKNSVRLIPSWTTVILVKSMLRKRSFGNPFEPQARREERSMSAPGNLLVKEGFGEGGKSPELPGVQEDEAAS
Source text: as §1

The target of the next experiment is T7, TAK1 (Homo sapiens, UniProt O43318).
T7 construct: gene MAP3K7
Source text: as §1

A further experiment has as its target FES (Homo sapiens, UniProt P07332).
Source text: as §1

Another experiment has as its target SIK2 (Homo sapiens, UniProt Q9H0K1).
Source text: as §1

In another experiment the target is INSR (Homo sapiens, UniProt P06213).
Source text: as §1

For the next experiment, the target named is T8, TRKB (Homo sapiens, UniProt Q16620).
T8 construct: gene NTRK2
Source text: as §1

A further experiment deals with AURKC (Homo sapiens, UniProt Q9UQB9).
Chain of AURKC (Q9UQB9 whole entry): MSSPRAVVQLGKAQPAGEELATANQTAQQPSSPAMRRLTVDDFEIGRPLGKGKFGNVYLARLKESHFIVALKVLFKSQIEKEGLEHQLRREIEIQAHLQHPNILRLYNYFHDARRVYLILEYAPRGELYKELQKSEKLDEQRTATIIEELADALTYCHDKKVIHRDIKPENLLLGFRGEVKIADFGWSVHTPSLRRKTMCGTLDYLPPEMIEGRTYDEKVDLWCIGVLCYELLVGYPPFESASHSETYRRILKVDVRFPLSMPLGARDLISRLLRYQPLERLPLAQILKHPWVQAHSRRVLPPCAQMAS
Source text: as §1

T4 sequence (Q8NI60 whole entry): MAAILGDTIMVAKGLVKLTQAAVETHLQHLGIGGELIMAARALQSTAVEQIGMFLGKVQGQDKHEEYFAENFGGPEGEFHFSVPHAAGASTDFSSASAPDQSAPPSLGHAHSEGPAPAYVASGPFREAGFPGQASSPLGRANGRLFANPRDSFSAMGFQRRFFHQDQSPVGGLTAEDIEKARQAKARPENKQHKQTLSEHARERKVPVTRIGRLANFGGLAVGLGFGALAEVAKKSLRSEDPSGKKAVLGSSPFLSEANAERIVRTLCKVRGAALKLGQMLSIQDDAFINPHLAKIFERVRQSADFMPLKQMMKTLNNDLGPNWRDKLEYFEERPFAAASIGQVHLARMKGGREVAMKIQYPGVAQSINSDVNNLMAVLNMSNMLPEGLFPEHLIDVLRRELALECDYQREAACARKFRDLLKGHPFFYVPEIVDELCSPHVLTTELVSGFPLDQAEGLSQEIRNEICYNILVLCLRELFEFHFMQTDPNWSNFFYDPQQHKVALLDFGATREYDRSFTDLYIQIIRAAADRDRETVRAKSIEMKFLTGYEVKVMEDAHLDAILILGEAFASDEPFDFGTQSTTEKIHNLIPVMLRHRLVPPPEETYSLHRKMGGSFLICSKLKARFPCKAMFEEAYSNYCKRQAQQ
Chain of EPHB1 (P54762 whole entry): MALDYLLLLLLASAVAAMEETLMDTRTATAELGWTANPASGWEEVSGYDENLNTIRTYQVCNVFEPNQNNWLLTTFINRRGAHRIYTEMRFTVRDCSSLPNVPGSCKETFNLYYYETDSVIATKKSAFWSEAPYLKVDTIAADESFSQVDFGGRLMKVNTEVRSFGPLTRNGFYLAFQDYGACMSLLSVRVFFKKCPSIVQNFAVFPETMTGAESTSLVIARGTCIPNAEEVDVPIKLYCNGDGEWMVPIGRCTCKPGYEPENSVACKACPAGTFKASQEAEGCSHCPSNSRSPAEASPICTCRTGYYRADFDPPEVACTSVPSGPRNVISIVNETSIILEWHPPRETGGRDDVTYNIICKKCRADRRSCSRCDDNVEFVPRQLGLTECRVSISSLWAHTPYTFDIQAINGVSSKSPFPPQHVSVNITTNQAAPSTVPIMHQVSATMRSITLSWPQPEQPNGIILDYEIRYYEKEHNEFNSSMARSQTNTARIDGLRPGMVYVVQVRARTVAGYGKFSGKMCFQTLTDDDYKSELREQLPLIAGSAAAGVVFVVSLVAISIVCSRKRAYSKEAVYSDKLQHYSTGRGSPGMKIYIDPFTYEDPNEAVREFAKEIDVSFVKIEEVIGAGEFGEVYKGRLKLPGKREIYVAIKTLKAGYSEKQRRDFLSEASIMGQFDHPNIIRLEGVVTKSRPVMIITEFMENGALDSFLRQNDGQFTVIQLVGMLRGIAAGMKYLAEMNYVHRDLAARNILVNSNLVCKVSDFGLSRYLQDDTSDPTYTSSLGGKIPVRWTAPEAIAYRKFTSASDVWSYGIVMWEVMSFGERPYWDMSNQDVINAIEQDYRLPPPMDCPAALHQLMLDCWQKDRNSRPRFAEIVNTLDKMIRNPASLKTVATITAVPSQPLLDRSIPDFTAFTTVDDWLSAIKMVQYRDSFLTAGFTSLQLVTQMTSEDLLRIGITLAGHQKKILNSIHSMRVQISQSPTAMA
Chain of SIK2 (Q9H0K1 whole entry): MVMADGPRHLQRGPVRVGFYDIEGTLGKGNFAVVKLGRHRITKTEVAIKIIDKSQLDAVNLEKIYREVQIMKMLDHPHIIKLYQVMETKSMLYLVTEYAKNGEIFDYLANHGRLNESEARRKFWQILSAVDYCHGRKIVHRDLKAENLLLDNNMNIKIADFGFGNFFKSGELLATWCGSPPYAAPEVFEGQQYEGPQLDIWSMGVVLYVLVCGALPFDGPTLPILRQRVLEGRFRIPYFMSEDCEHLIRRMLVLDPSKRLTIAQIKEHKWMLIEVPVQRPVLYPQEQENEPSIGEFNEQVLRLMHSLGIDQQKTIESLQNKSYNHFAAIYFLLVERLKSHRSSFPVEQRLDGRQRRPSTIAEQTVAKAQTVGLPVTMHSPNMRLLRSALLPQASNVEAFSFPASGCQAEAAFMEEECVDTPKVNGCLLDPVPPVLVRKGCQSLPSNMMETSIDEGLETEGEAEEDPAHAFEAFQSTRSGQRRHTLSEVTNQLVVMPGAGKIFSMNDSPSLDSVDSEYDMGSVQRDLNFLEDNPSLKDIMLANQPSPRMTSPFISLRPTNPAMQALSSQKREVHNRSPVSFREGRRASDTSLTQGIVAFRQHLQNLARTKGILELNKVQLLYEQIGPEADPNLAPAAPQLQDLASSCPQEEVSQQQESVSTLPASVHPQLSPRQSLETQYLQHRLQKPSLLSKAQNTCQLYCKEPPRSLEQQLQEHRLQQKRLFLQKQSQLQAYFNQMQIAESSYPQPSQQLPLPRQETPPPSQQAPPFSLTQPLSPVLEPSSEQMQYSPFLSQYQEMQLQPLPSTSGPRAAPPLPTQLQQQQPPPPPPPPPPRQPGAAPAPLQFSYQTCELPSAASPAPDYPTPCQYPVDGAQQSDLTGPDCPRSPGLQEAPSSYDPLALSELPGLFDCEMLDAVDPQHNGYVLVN
Chain of FES (P07332 whole entry): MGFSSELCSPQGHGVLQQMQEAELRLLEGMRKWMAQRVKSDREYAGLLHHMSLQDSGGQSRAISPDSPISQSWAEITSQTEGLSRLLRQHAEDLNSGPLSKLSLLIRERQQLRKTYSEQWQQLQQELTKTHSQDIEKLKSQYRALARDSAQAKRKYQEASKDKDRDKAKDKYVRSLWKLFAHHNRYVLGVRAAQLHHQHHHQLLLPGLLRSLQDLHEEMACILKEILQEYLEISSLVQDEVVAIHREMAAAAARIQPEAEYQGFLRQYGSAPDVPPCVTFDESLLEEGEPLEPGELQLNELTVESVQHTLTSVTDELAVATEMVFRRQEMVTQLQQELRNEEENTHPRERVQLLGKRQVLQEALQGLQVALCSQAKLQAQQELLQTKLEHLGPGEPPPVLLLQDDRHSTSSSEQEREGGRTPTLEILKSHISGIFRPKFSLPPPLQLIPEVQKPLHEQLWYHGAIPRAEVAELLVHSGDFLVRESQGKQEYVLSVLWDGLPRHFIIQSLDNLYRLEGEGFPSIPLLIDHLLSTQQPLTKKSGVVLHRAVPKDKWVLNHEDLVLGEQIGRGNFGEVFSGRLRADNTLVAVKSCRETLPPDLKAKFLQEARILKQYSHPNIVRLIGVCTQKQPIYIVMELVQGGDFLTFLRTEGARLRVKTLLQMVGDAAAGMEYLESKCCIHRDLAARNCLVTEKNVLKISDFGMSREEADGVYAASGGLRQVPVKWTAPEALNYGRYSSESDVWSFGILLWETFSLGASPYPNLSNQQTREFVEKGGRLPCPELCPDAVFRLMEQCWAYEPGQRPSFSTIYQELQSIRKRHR

As to `c1ccc2c(c1)Sc1ccccc1N2CCN1CCOCC1` [J54], the remaining binding is 95% on ABL1-nonphosphorylated; 99% on EGFR(G719S); 99% on MYLK4; 100% at PFTAIRE2; 94% on MARK1; 100% at TYRO3. The remaining binding stood at 100% in experiment [1]; 100% on ADCK3; 73% at ERK3; 91% on YANK1; 100% on EPHB1; 100% at CAMKK1. The remaining binding stood at 97% at TAK1; 100% at FES; 97% at SIK2; 68% at INSR; 89% on TRKB; 100% at AURKC.
